In patent US10385063B2, “Herbicidal compounds” (Syngenta Participations AG, priority 2015, dated 2019):

Assays:
Assay in all cases: Post-emergence efficacy, glasshouse pot test
Type in all cases: in vivo
Conditions in all cases: evaluated after 13 days
Solanum nigrum (SOLNI) = test system: Solanum nigrum (SOLNI)
Protocol: (§1) B1 Post-emergence Efficacy Seeds of a variety of test species are sown in standard soil in pots:— Solanum nigrum (SOLNI), Amaranthus retoflexus (AMARE), Setaria faberi (SETFA), Echinochloa crus-galli (ECHCG), Ipomoea hederacea (IPOHE), Lolium perenne (LOLPE). After 8 days cultivation (post-emergence) under controlled conditions in a glasshouse (at 24/16° C., day/night; 14 hours light; 65% humidity), the plants are sprayed with an aqueous spray solution derived from the formulation of the technical active ingredient in acetone/water (50:50) solution containing 0.5% Tween 20 (polyoxyethylene sorbitan monolaurate, CAS RN 9005-64-5). Compounds are applied at 1000 g/ha and 250 g/ha. The test plants are then grown in a glasshouse under controlled conditions in a glasshouse (at 24/16° C., day/night; 14 hours light; 65% humidity) and watered twice daily. After 13 days, the test is evaluated for the percentage damage caused to the plant. The biological activities are shown below in Table B1, on a five point scale (5=80-100%; 4=60-79%; 3=40-59%; 2=20-39%; 1=0-19%).

[1] = test system: Ipomoea hederacea (IPOHE)
Protocol: as §1

[2] = test system: Amaranthus retoflexus (AMARE)
Protocol: as §1

Setaria faberi (SETFA) = test system: Setaria faberi (SETFA)
Protocol: as §1

[3] = test system: Echinochloa crus-galli (ECHCG)
Protocol: as §1

Lolium perenne (LOLPE) = test system: Lolium perenne (LOLPE)
Protocol: as §1

SMILES | percentage damage caused to the plant, SOLNI (five point scale) (Solanum nigrum (SOLNI); 250 g/Ha) | percentage damage caused to the plant, SOLNI (five point scale) (Solanum nigrum (SOLNI); 1000 g/Ha) | percentage damage caused to the plant, IPOHE (five point scale) ([1]; 250 g/Ha) | percentage damage caused to the plant, IPOHE (five point scale) ([1]; 1000 g/Ha) | percentage damage caused to the plant, AMARE (five point scale) ([2]; 250 g/Ha) | percentage damage caused to the plant, AMARE (five point scale) ([2]; 1000 g/Ha) | percentage damage caused to the plant, SETFA (five point scale) (Setaria faberi (SETFA); 250 g/Ha) | percentage damage caused to the plant, SETFA (five point scale) (Setaria faberi (SETFA); 1000 g/Ha) | percentage damage caused to the plant, ECHCG (five point scale) ([3]; 250 g/Ha) | percentage damage caused to the plant, ECHCG (five point scale) ([3]; 1000 g/Ha) | percentage damage caused to the plant, LOLPE (five point scale) (Lolium perenne (LOLPE); 250 g/Ha) | percentage damage caused to the plant, LOLPE (five point scale) (Lolium perenne (LOLPE); 1000 g/Ha)
CC1(C)c2nccnc2C(=O)C(c2c(F)ccc(Cl)c2OCc2ccccc2)S1(=O)=O (stereo not drawn) [Compound 1.08, 7-(2-benzyloxy-3-chloro-6-fluoro-phenyl)-5,5-dimethyl-6,6-dioxo-thiopyrano[3,4-b]pyrazin-8-ol] | 5 (5=80-100%) | 5 (5=80-100%) | 5 (5=80-100%) | 5 (5=80-100%) | 5 (5=80-100%) | 5 (5=80-100%) | 5 (5=80-100%) | 5 (5=80-100%) | 4 (4=60-79%) | 5 (5=80-100%) | 5 (5=80-100%) | 5 (5=80-100%)
CC1(C)C(=O)C(c2c(F)ccc(Cl)c2OCc2ccccc2)C(=O)c2nccnc21 (stereo not drawn) [Compound 1.02] | 5 (5=80-100%) | 5 (5=80-100%) | 5 (5=80-100%) | 5 (5=80-100%) | 5 (5=80-100%) | 5 (5=80-100%) | 5 (5=80-100%) | 5 (5=80-100%) | 5 (5=80-100%) | 5 (5=80-100%) | 5 (5=80-100%) | 5 (5=80-100%)
CC1(C)C(=O)C(c2c(Cl)ccc(Cl)c2OCc2ccccc2)C(=O)c2nccnc21 (stereo not drawn) [Compound 1.01, 7-(2-benzyloxy-3,6-dichloro-phenyl)-8-hydroxy-5,5-dimethyl-quinoxalin-6-one] | 5 (5=80-100%) | 5 (5=80-100%) | 5 (5=80-100%) | 5 (5=80-100%) | 5 (5=80-100%) | 5 (5=80-100%) | 5 (5=80-100%) | 5 (5=80-100%) | 5 (5=80-100%) | 5 (5=80-100%) | 5 (5=80-100%) | 5 (5=80-100%)
O=C1c2nccnc2CS(=O)(=O)C1c1c(Cl)ccc(Cl)c1OCc1ccccc1 (stereo not drawn) [Compound 1.13] | 5 (5=80-100%) | 5 (5=80-100%) | 5 (5=80-100%) | 5 (5=80-100%) | 5 (5=80-100%) | 5 (5=80-100%) | 5 (5=80-100%) | 5 (5=80-100%) | 5 (5=80-100%) | 5 (5=80-100%) | 5 (5=80-100%) | 5 (5=80-100%)
